Source: patent publication US11957671B2, “Benzodioxane modulators of leukotriene A4 hydrolase (LTA4H) for prevention and treatment of aging-associated diseases” (Alkahest, Inc., priority 2021, dated 2024)

Tested on: aged wild type (WT; C57BL/6) mice
Experiment: Radial Arm Water Maze (RAWM)
Type: in vivo, mouse
Details: 10 mg/kg PO daily, after 29 days of treatment
Description: The water maze (see, e.g. Alamed J, et al., Two-day radial-arm water maze learning and memory tasks; robust resolution of amyloid-related memory deficits in transgenic mice, Nat. Protoc., 1(4):1671-79 (2006)), was filled with water at least 24 hours prior to the test to equilibrate to 25° C. The water was dyed with white latex paint to make the animals visible for tracking and to allow for the use of a hidden platform. Eight distinct visual cues were placed at the end of each of eight arms of the RAWM inserts. On day 1 animals were subjected to 5 trials each with a visible platform and a 30-minute inter-trial interval. Animals had 60 seconds to reach the platform. […] The goal arm remained constant, and a different start arm was randomly assigned for each of the 5 trials so that mouse started in every arm once except for the two arms directly across from the platform. The goal arm was switched after every two mice and balanced between all treatment groups. After each trial the mice were placed in an empty cage with blue pads and allowed to dry off under a heat lamp before being placed back into their home cage. Testing day was 48 hours after training, when animals were subjected to the same test of 5 trials each and a 30-minute inter-trial interval, but with a hidden platform. Animals were scored for the number of errors (entry into a non-goal arm) and for latency to reach the platform. All trials were recorded using ANY-maze software.
Three independent cohorts of aged wild type (WT; C57BL/6) mice between twenty to twenty-two months of age (20-22 mo) were homogenized into two (2) groups by body weight, total distance travelled in the open field test, and average velocity in the open field test. Group 1 was administered vehicle control PO daily. Group 2 was administered 10 mg/kg of the LTA4H inhibitor Compound 1 PO daily. Both groups were dosed for either 10 days or 4 weeks daily. Behavioral assays were run during the last week of dosing and animals were sacrificed at the end of the study for histological and molecular assays.

O=C(O)C1CCN(Cc2ccc([C@H]3COc4ccccc4O3)cc2)CC1 [Example 1, 1-{4-[(2S)-2,3-dihydro-1,4-benzodioxin-2-yl]benzyl}piperidine-4-carboxylic acid]
average number of errors during the last trial: significant decreased in number of errors
latency to find the hidden platform, last trial: trend towards a reduction in time to find the platform
number of errors during the training and testing phases: small, but significant improvement in number of errors
